How the values were obtained:
[1] = test system: Cloudman S-91 mouse melanoma cells (sub-clone M-3); experiment: Annexin V-FITC/propidium iodide apoptosis assay in melanoma cells; type: cell-based
Experimental: (§1) Cloudman S-91 mouse melanoma cells (sub-clone M-3, CCL 53.1; American Type Culture Collection, Rockville, Md.) were grown in RMPI medium supplemented with 10% fetal bovine serum (Invitrogen, Inc) and 5% penicillin-streptomycin (Invitrogen, Inc). Mouse breast cancer cells (66Cl-1; American Type Culture Collection, Rockville, Md.) that are estrogen-receptor negative were grown in DMEM medium supplemented with 10% fetal bovine serum (Invitrogen, Inc) and 5% penicillin/streptomycin (Invitrogen, Inc). Human T-cell leukemic lymphocytes (CEM; American Type Culture Collection, Rockville, Md.) were grown in MEM medium supplemented with 7% fetal calf serum. Cultures were passaged twice a week.
Early and late apoptosis was assessed with the Annexin V-FITC Apoptosis Detection Kit from PharMingen (Becton-Dickinson, San Diego, Calif.). Images were obtained at the Center for Cell Analysis and Modeling, University of Connecticut Health Center, Farmington, Conn., with an Axioplan CCD Microscope equipped with a 40×1.3 NA FL objective lens and Photometrics PXL-EEV37 high speed digital cooled CCD camera via Metamorph image acquisition and analysis software (Universal Imaging Corp., Downington, Pa.).
(§2) M3 Cloudman melanoma cells were plated into culture dishes containing RPMI medium. After 24 hour media was changed to control medium (no drug) or to media containing different concentrations of methyl sulfone (1-10% methyl sulfone in RPMI medium). Cells were examined by live cell video microscopy immediately after adding drug and every 24 hours up to 144 hours.
Briefly, melanoma cells (Cloudman M3 cell line) were plated at 10^5 cells/ml in RPMI medium. After 24 hours, medium was replaced with RPMI containing different concentrations (grams/volume) of MMS, MES and EES. After 24 hours, apoptosis was assayed using the Becton-Dickinson Annexin V-FITC/Propidium Iodide Kit and a Nikon fluorescent microscope as described by the manufacturer.

melanoma cells = experiment: Senescence assay (β-galactosidase staining) and arborization; type: cell-based, mouse
Experimental: Senescence was assessed with the Senescence Cells Histochemical Staining Kit (Sigma).
During the first 2-3 weeks of incubating melanoma cells in 2% methyl sulfone, replacement of the 2% methyl sulfone medium with medium without drug reversed the phenotypes described above. Re-adding 2% methyl sulfone to the cells re-induced the non-malignant phenotypes. This cycle of reversal occurred until the cells were incubated with 2% methyl sulfone for more than three weeks. […] As a further test, we detached senescent cells from the culture dish by trypsinization and replated the cells in medium without methyl sulfone.
Mature melanocytes assume a morphology that is similar to neuronal cells by having a small area of cytoplasm surrounding the nucleus and long extensions called arbors. The primary function of melanocytes is to produce melanin and package the melanin in vesicles called melanosomes. Melanosomes are then transported to the tips of melanocytes arbors. These tips are phagocytized by keratinocytes, cells that sit near the skin's surface, and the newly acquired melanosomes form an umbrella-like shield around the nuclei of keratinocytes to protect these cells' DNA from UV-inducing mutations.

[2] = test system: B-cells from healthy volunteers; experiment: Apoptosis of normal B-cells by Flow Cytometry; type: cell-based, human; details: 10% methyl sulfone, 20 hours
Experimental: Blood was drawn from healthy volunteers and white blood cells (e.g., lymphocytes, neutrophils) were enriched using Ficoll-Plaque. Cells were incubated in Petri dishes containing MEM with 7% fetal calf serum in a CO2 (5%) incubator at 37° C.; Methyl sulfone was present at concentrations of 0, 3, 6, or 10%. After 20 hours, cells were incubated with antibodies specific to T-lymphocytes (CD3 and CD4 T-cells), B-lymphocytes (B-cells) and neutrophils, and the percent of apoptotic cells was determined by Flow Cytometry. This is a technique that identifies specific cell types (e.g., CD3 T-cells, CD4 T-cells, B-cells, neutrophils) within a mixed population of blood cells, and then determines whether the cells are alive or apoptotic.
After 20 hours, cells were incubated with fluorescent antibodies to identify T-cells, B-cells and neutrophils, and then processed by Flow Cytometry (FIG. 15).

[3] = test system: M3 Cloudman melanoma cells; experiment: Live cell video microscopy of melanoma cells (morphology, contact inhibition); type: cell-based, mouse
Experimental: as §1
Cells were plated on 35 mm tissue culture dishes at concentration of 10^5 cells/plate, unless stated otherwise, and incubated at 37° C., 5% CO2. After 24 hours, methyl sulfone (0-10% in medium) was added to appropriate plates and immediately videotaped with a Nikon TE300 inverted microscope equipped with a 10×0.25 NA Plan Achromat objective lens. Control cells (no drug) were videotaped as described above. Time series (10 min) of phase contrast images were acquired at a video rate of 1 frame/5 s with a Watec-902B CCD video camera (Watec Corp., Japan) via the stream acquisition option of Metamorph image acquisition and analysis software (Universal Imaging Corp., Downington, Pa.). During recordings, cells were kept at 37° C. with 10 mM Hepes, pH 7.4. Time series of cells +/−2% methyl sulfone were obtained every 24-48 hours for up to 6 weeks.
as §2
The possibility that the data generated from treating cells with methyl sulfone was a nonspecific effect due to changes in extracellular osmolarity was considered. To test this possibility an equimolar concentration of urea was substituted for 2% methyl sulfone; urea has a chemical structure and dipolar moment that is similar to methyl sulfone. […] We next replaced 2% methyl sulfone with an equimolar concentration of dimethyl sulfoxide (DMSO).

Question: methyl sulfone was tested. Which “apoptosis of melanoma cells” value ([1]; 6% methyl sulfone, 24 hours) did it give?
Answer: Its value is “induced into apoptosis”.

Question: And the “apoptosis of M3 cells compared with MES or EES” value ([1]; 24 hours, especially at less than 5%)?
Answer: The value was “significantly less apoptosis”.

Question: What about the “window of concentrations between killing cancer cells and harming normal cells” value ([1]; conclusion from FIGS. 16 and 17) of the same substance?
Answer: Its value is “wide window”.

Question: What about the “methyl sulfone concentration at which melanoma cells became apoptotic” value ([1]; melanoma cells, FIG. 1 legend) of the same substance?
Answer: The value was “over 2%”.

Question: And the “morphology of senescent melanoma cells (arborization)” value (melanoma cells; 2% methyl sulfone)?
Answer: The value was “took on the morphology of mature melanocytes”.

Question: What about the “survival of arborized cells in culture” value (melanoma cells; 2% methyl sulfone) of the same substance?
Answer: The value was “at least two months”.

Question: And the “melanoma cells senescent (β-galactosidase activity)” value (melanoma cells; 2% methyl sulfone for more than three weeks)?
Answer: Its value is “greater than 95%”.

Question: What about the “senescence after replacing drug medium with control medium” value (melanoma cells; senescent cells, 2% methyl sulfone removed) of the same substance?
Answer: The value was “remained senescent”.

Question: And the “effect on B-cells” value [2]?
Answer: Its value is “unharmed”.

Question: And the contact inhibition ([3]; 2% methyl sulfone, by 24 hours)?
Answer: The contact inhibition was “contact inhibited”.

Question: And the “cell morphology after re-attachment” value ([3]; 2% methyl sulfone, over the next few hours)?
Answer: Its value is “flattened morphology”.

Question: And the “morphology immediately after adding drug” value ([3]; all concentrations (1-10% in RPMI medium))?
Answer: Its value is “cells became round with some cells detaching from culture plates”.
